Test system: C. elegans
Experimental: NGM buffer is NGM agar without agar, peptone, or cholesterol.
A moat solution of 100 mM CuSO4 was prepared, which was approximately in osmotic equilibrium with the agar medium. The moat solution was added to the moats by pipette.

What does the source list for `O=S(=O)([O-])[O-].[Cu+2]` [copper sulfate]?
worms escaped (after 3 days, moat containing 100 mM copper sulfate, NGM liquid moat as comparison (about 20%)): 5%; preventing animals from leaving their wells (fraction of worms escaping wells as a function of time) (moat containing 100 mM CuSO4, n=96, versus moat containing NGM buffer, FIG. 7b): superior

— US11795423B2, “Micro-fabricated multi-well chips for long term automated imaging of C. elegans growth and behavior” (THE TRUSTEES OF THE UNIVERSITY OF PENNSYLVANIA, priority 2014, dated 2023)
